# Assays:
# [1] = system: Shank3-deficient mice; test: Social interaction behavioral test (3 chambers) after drug injection; assay type: in vivo, mouse; conditions: for time participating in social stimuli: 3-chamber test; for social preference index (persistence of effect): followed for 28 days after injection
# Method: (§1) FIG. 5 (A) Immunostaining results of quiescent neural stem cells in the SVZ of control and Shank3 KO mice injected with saline, OICR-9429 (3 mg/kg, once/day, 3 days), romidepsin (0.25 mg/kg, once/day, 3 days), and clozapine (5 mg/kg, once/day, 3 days). The yellow arrows indicate GFAP+Sox2+Dlx2− qNSCs. Scale bar=20 μm. (B) Immunostaining results of quiescent neural stem cells in the DG of control and Shank3 KO mice injected with saline, OICR-9429 (3 mg/kg, once/day, 3 days), romidepsin (0.25 mg/kg, once/day, 3 days), and clozapine (5 mg/kg, once/day, 3 days). The yellow arrows indicate GFAP+Sox2+NeuN− qNSCs. Scale bar=20 μm. (C-E) Quantification results of FAP+Sox2+Id2+ (C) and GFAP+Sox2+Dlx2− (D) qNSCs in the SVZ and GFAP+Sox2+NeuN− (E) qNSCs in the DG. (F) Quantification results of BrdU+ NSCs in the SVZ injected with saline, OICR-9429, romidepsin, and clozapine. Control and Shank3 KO mice injected with each drug were injected intraperitoneally with a daily dose of BrdU (100 mg/kg/day). (G) Quantification results of DCX+ NPCs in the DG of control and Shank3 KO mice injected with each drug. (H) Immunofluorescence analysis of GFAP+,Sox2+,BrdU+ aNSCs in the SVZ of control and Shank3 KO mice injected with each drug. Scale bar=100 μm. (I) Quantification results of BrdU+ cells in the SVZ of saline- or OICR-9429-treated control and Shank3 mice at different time points after TMZ injection. (J) Analysis of protein expression levels of synaptic proteins and glutamate receptor subunits from control or Shank3 KO mice injected with saline or OICR-9429. (K) Results of representative heat maps showing the time spent in 3 chambers to assess the social interactions of control and Shank3 KO mice treated with saline, OICR-9429, romidepsin, clozapine, and VPA. (L-O) Social preference index percentages (Soc vs. NS ratio) in Shank3 KO mice injected with OICR-9429 (L), romidepsin (M), clozapine (N), and VPA (O) for 28 days.
# In addition, to investigate the therapeutic effect of OICR-9429, a social interaction behavioral test was performed on Shank3-deficient mice injected with various neuropsychiatric drugs.
# [2] = system: quiescent neural stem cells in SVZ and DG of Shank3-deficient mice; test: Immunostaining quantification of qNSCs, BrdU+ NSCs and DCX+ cells after drug injection; assay type: in vivo, mouse; conditions: for number of GFAP+,Sox2+,Dlx2− qNSCs / number of GFAP+,Sox2+,Id2+ qNSCs: 2 weeks after administration, OICR-9429 3 mg/kg, romidepsin 0.25 mg/kg, clozapine 5 mg/kg, once/day, 3 days
# Method: as §1
# To provide a drug-based therapeutic strategy for autism, Shank3-deficient mice were treated with OICR-9429, which is an antagonist inhibiting H3K4 trimethylation by KMT2A, and the effect was investigated. […] Similarly, OICR-9429 injection reduced the number of GFAP+,Sox2+,NeuN− qNSCs during hippocampal neurogenesis in Shank3-deficient mice (FIGS. 5B and 5E). […] Finally, as a result of treatment with OICR-9429, the number of DCX-positive neuroblasts increased in the brains of Shank3-deficient mice (FIG. 5G).
# [3] = system: Homer1, SAPAP3, GluR1, GluR2, NR2A, NR2B; test: Protein expression levels of synaptic proteins and glutamate receptor subunits in mice; assay type: in vivo, mouse; conditions: Shank3-deficient mice
# Method: as §1, with “(J) Analysis of protein expression levels of synaptic proteins and glutamate receptor subunits from control or Shank3 KO mice injected with saline or OICR-9429. (K) Results of representative heat maps showing the time spent in 3 chambers to assess the social interactions of control and Shank3 KO mice treated with saline, OICR-9429, romidepsin, clozapine, and VPA. (L-O) Social preference index percentages (Soc vs. NS ratio) in Shank3 KO mice injected with OICR-9429 (L), romidepsin (M), clozapine (N), and VPA (O) for 28 days.” left out
# [4] = system: SHANK3-deficient human radial glia cells; test: Immunofluorescence of SHANK3-deficient human iPSC-derived neural stem (radial glia) cells; assay type: cell-based; conditions: five days after treatment
# From the text: FIG. 6 (A) Immunostaining results of GFAP+,SOX2+,ID2+ and GFAP+,SOX2+,NESTIN+ quiescent neural stem cells (radical glia cell, RGCs) from control or SHANK3-deficient iPSCs. White arrows indicate human RGCs. Scale bar=20 μm. (B) Quantification results of GFAP+,SOX2+,I D2+ RGCs with radial morphology. (C) Quantification results of GFAP+,SOX2+,NESTIN+ RGCs with radial morphology. (D) Immunostaining of GFAP+,SOX2+,EGFR+ aNSC and K167+ proliferating cells. Scale bar=20 μm. (E) Quantification results of GFAP+,SOX2+,EGFR+ aNSCs from control or SHANK3-deficient RGCs. (F) Quantification results of K167+ proliferating cells from control or SHANK3-deficient RGCs. (G) Immunofluorescence analysis of GFAP+,SOX2+,NESTIN+ RGCs from control or SHANK3-deficient NSCs treated with KMT2A-shRNA. The white arrow indicates cells with radial morphology. Scale bar=20 μm. (H) Quantification results of the number of GFAP+,SOX2+,NESTIN+ RGCs with radial morphology and GFAP+,SOX2+,NESTIN+ RGCs with nonradial morphology treated with KMT2A-shRNA. […]
# The molecular mechanisms underlying the autism phenotypes associated with SHANK3 deficiency in human iPSC-derived neural differentiation were investigated. […] Additionally, it was analyzed whether or not SHANK3-deficient human radial glia cells are pharmacologically treated by OICR-9429.
# [5] = system: qNSC activity in SVZ of Shank3-deficient mice; test: Recovery of BrdU-positive cells after temozolomide (TMZ) injection; assay type: in vivo, mouse; conditions: after 7 days of TMZ injection, relative to control mice
# Method: as §1, with “(J) Analysis of protein expression levels of synaptic proteins and glutamate receptor subunits from control or Shank3 KO mice injected with saline or OICR-9429. (K) Results of representative heat maps showing the time spent in 3 chambers to assess the social interactions of control and Shank3 KO mice treated with saline, OICR-9429, romidepsin, clozapine, and VPA. (L-O) Social preference index percentages (Soc vs. NS ratio) in Shank3 KO mice injected with OICR-9429 (L), romidepsin (M), clozapine (N), and VPA (O) for 28 days.” left out
# [6] = system: HOMER1, SAPAP3, GluR1, NR2A; test: Western blot of synaptic proteins and glutamate receptor subunits in SHANK3-deficient human cultures; assay type: cell-based
smiles,measurement,setting,value
C/C=C1\NC(=O)[C@H]2CSSCC/C=C/[C@H](CC(=O)N[C@H](C(C)C)C(=O)N2)OC(=O)[C@H](C(C)C)NC1=O [romidepsin],time participating in social stimuli,[1],no significant effect
same,"number of GFAP+,Sox2+,Dlx2− qNSCs","[2]; SVZ, Shank3-deficient mice",no effect
same,"number of GFAP+,Sox2+,Id2+ qNSCs","[2]; SVZ, Shank3-deficient mice",no effect
CN1CCN(C2=Nc3cc(Cl)ccc3Nc3ccccc32)CC1 [clozapine],time participating in social stimuli,[1],no significant effect
same,"number of GFAP+,Sox2+,Dlx2− qNSCs","[2]; SVZ, Shank3-deficient mice",no effect
same,"number of GFAP+,Sox2+,Id2+ qNSCs","[2]; SVZ, Shank3-deficient mice",no effect
CN1CCN(c2ccc(-c3cccc(CN4CCOCC4)c3)cc2NC(=O)c2c[nH]c(=O)cc2C(F)(F)F)CC1 [OICR-9429],"expression of synaptic proteins Homer1 and SAPAP3 and glutamate receptor subunits GluR1, GluR2, NR2A, and NR2B",[3],significantly restored
same,"proportion of GFAP+,SOX2+,NESTIN+ radial glia cells with non-radial morphology",[4]; SHANK3-deficient neural stem cells,significant decrease
same,"proportion of GFAP+,SOX2+,NESTIN+ radial glia cells with radial morphology",[4]; SHANK3-deficient radial glia cells,decreased
same,BrdU-positive cells after TMZ injection,[5],significantly recovered
same,expression levels of synaptic proteins HOMER1 and SAPAP3 and glutamate receptor subunits GluR1 and NR2A,[6],greatly increased
same,time participating in social stimuli,[1],significantly more time
same,social preference index (persistence of effect),[1],gradually improved up to 3 weeks after injection
same,number of rapidly dividing cells labeled with BrdU,"[2]; SVZ, Shank3-deficient mice",greatly increased
same,"number of GFAP+,Sox2+,Dlx2− qNSCs","[2]; SVZ, Shank3-deficient mice",significantly decreased
same,"number of GFAP+,Sox2+,Id2+ qNSCs","[2]; SVZ, Shank3-deficient mice",significantly decreased
same,number of DCX-positive neuroblasts,[2]; brains (DG) of Shank3-deficient mice,increased
same,"number of GFAP+,Sox2+,NeuN− qNSCs","[2]; hippocampal neurogenesis (DG), Shank3-deficient mice",reduced
CCCC(CCC)C(=O)O [VPA],time participating in social stimuli,[1],no significant effect
same,social preference index (persistence of effect),[1],did not improve

# — patent US20240299438A1, “METHOD FOR DIAGNOSIS AND TREATMENT OF AUTISM SPECTRUM DISORDER ON BASIS OF ACTIVITY REGULATION MECHANISM OF DORMANT NEURAL STEM CELL” (DONGGUK UNIVERSITY INDUSTRY-ACADEMIC COOPERATION FOUNDATION, priority 2021, published 2024)
